ChEMBL document CHEMBL1130593, “The importance of GLU361 position in the reaction catalyzed by cholesterol oxidase” (Bioorg Med Chem Lett, 1998)

Tests used:
Streptomyces [1] = test: Steady-state kinetic parameter on wild-type cholesterol oxidase
Streptomyces [2] = test: Steady-state kinetic parameter on E361D mutant cholesterol oxidase

Structure (SMILES) | Km (Streptomyces [1]) | k cat (Streptomyces [1]) | Km (Streptomyces [2]) | k cat (Streptomyces [2])
CC(C)CCC[C@@H](C)[C@H]1CC[C@H]2[C@@H]3CC=C4CC(=O)CC[C@]4(C)[C@H]3CC[C@]12C | 6.2 µM | 64 s⁻¹ | 1.4 µM | 0.2 s⁻¹
CC(C)CCC[C@@H](C)[C@H]1CC[C@H]2[C@@H]3CC=C4C[C@@H](O)CC[C@]4(C)[C@H]3CC[C@]12C | 3 µM | 44 s⁻¹ | 0.6 µM | 4.2 s⁻¹
